PMC4515242, “ESR and X-ray Structure Investigations on the Binding and Mechanism of Inhibition of the Native State of Myeloperoxidase with Low Molecular Weight Fragments” (Applied Magnetic Resonance, 2015)

How the values were obtained:
hMPO = molecular target: T1, hMPO (Homo sapiens, UniProt P05164); assay: Alpha screen assay: inhibition of MPO-initiated nitration of the Apo-A1 peptide ([…]); format: biochemical; conditions: MPO 11.8 nM, pH 7.4, 45 min RT
T1 construct: purchased Biodesign A31804H
T1 sequence (P05164 49-745): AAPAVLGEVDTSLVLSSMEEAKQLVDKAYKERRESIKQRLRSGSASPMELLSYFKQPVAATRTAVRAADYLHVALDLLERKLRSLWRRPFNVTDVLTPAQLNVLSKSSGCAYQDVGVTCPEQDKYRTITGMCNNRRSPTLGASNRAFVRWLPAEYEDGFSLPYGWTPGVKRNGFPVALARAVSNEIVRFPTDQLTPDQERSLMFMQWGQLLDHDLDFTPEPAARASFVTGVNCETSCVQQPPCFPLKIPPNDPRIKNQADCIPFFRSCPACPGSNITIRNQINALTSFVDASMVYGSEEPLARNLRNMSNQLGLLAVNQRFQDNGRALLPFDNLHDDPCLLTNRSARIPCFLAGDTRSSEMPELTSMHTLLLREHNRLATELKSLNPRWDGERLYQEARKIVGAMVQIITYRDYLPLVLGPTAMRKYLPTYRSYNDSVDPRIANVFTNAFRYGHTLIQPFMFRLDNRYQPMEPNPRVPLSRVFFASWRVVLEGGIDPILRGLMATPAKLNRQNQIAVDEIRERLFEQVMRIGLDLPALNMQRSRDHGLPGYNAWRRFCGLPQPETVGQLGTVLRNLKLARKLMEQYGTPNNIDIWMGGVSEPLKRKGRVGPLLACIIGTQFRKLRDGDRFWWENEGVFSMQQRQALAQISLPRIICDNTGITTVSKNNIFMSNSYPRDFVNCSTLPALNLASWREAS
Procedure: In a typical experiment, MPO (11.8 nM final concentration) in 20 mM phosphate buffer pH 7.4, 10 % glycerol and 0.005 % gelatin (PB) is added to each well of a multi-well plate containing 20 μl PB ± compound (final concentration of DMSO = 0.9 %). The reaction is started by the addition of 20 μl PB containing 1.5 μM ApoAI peptide substrate, 300 μM diethylenetriaminepentaacetic acid (DTPA), 300 μM sodium nitrite, and 30 μM H2O2. The total reaction volume is 60 μl. The plates are incubated with agitation for 45 min at RT. The reaction is terminated with the addition of 20 μl of a stop solution containing 11.2 nM rabbit anti-nitrotyrosine antibody (final conc. of 2.8 nM), 100 μg/ml streptavidin donor beads, and 100 μg/ml protein A acceptor beads (final concentration of […]), FBS (1.6 % final concentration) in Superblock buffer. The plates are sealed, incubated in the dark for 1 h, and read on a Packard Fusion alpha plate reader.
Through a chloride independent pathway, MPO catalyzes the one electron oxidation of nitrite ions to nitrogen dioxide radicals which then […] protein amino acids like Tyrosine. We used the Apo-A1 peptide substrate ([…]) to follow the nitration of the Tyrosine (indicated by Y in the scheme below): MPO+H2O2→Compound INO2-+Compound I→NO2·+Compound II [drawing 1] Our initial experiments focused on identifying inhibitors that bind to the heme to inhibit the above catalytic action. A representative set of inhibitors is collected in Fig. 1a (strong binders, vide infra) and b (non binders, vide infra).

[1] = ABTS radical cation decolorization assay to measure the antioxidant capacity; conditions: % inhibition at 20 uM single dose, read at 734 nm after 30 min
Procedure: The assay was modeled after the published procedure. Briefly, ABTS radical cation was prepared by adding 100 μl of 70 mM K2S2O8 to 10 ml ABTS, followed by vortexing and incubating at 37 °C water bath for 2 h. […] Trolox standards are dissolved in water. The reaction is started by adding the ABTS radical cation solution to the MPO inhibitors or Trolox (final concentration 20 μM). The plate is gently shaken for 1 min and then set on a bench top at room temperature for 30 min.

[2] = molecular target: T2, native state (Fe3+) of hMPO (Homo sapiens, UniProt P05164); assay: Low temperature ESR binding assay (binding-induced g shift, Rrelative); conditions: for ESR Rrelative: Rrelative = (Rbound - Rnative)/Rnative x 100, inhibitor:MPO 40:1, pH 6, 6 % DMSO, 4-7 K; for Δg: absolute difference between g X and g Y of the bound complex; for ESR Binding: class by Rrelative, inhibitor:MPO 40:1; for g X / g Y: electronic g value of the bound complex, X-band ESR, 5 K
T2 construct: purchased Athens Research and Technology
T2 sequence (P05164 49-745): T1 sequence (P05164 49-745)
Procedure: After 5-min. incubation at room temperature, the entire reaction mixture (0.235 mL) was transferred to the ESR quartz tubes. To avoid the quartz tubes breaking during the rapid freezing cycles, the ESR tubes were initially frozen in a 1:1 Isopentane-Cyclohexane mixture cooled with dry ice powder and then transferred to a liquid nitrogen Dewar to be queued up for ESR measurements. The reaction mixture contained a final concentration of 6 % DMSO. ESR spectra were recorded on a Varian E-12, X-band spectrometer equipped with an Air Products liquid helium cryostat.
The experimental g values correspond to the spin Hamiltonian pertinent to the high-spin ion (S = 5/2).1 H=DSZ2-1/3SS+1+E/DSX2-SY2+βgeS.Be where D and E are the eigen values of the axial and rhombic field components, i.e., the symmetry of the ligand (inhibitors approaching heme in this case). […] When the heme lodges inside the protein, the protein side chain amino acid (histidine) approaches the heme vicinity and either binds (axially) directly to the iron in the heme pocket. […] Thus, the fifth ligand leads to lower (rhombic) symmetries causing the signal at g ~ 6 to split. This non-tetragonal splitting of the heme is quantitated by the relationship,2 E/D=Δg/48 where ∆g represents the absolute difference between the gX and gY components. Alternatively, making use of the fact that E/D maximum value = 1/3, one can simplify the above expression as a percentage of rhombicity, R:3 R=Δg/16×100%. […] To rank-order molecules in terms of their ability to distort the heme pocket/plane environment, we used a ratio of total distortion in the bound complex w.r.t. distortion seen in the native unbound enzyme:4 Rrelative=Rbound-Rnative/Rnative×100.
From the relative rhombicities of the bound and unbound complex, a measure of the strength of binding could be derived. […] For the ease of classification, we have empirically defined those with 5 ≤ Rrelative ≥ 2 as weak binding; 15 ≥ Rrelative ≥ 10 as moderate binding; and 25 ≥ Rrelative ≥ 15 as strong binding (Table 2).

[3] = ESR, Inhibitor:MPO ratio 40:1, DMSO 6 %

Compound	IC50 (hMPO) [nM]	% Anti oxidant potential [1] [%]	proportion of the enzyme bound [2, 3] [%]	proportion of the enzyme unbound [2, 3] [%]	ESR Rrelative [2]	Δg [2]	ESR Binding [2]	g X [2]	g Y [2]
O=C(O)c1nn(-c2ccccc2)cc1O [LSN17948]	520	42.1	70	30	24.2	2.256	Strong (25 ≥ Rrelative ≥ 15 as strong binding)	6.995	4.739
O=C(O)c1n[nH]c(-c2ccccc2)c1O [LSN87637]	674	65.9	–	–	14.1	2.09	Moderate (15 ≥ Rrelative ≥ 10 as moderate binding)	6.917	4.827
O=C(O)c1nn(-c2cccc3ccccc23)cc1O [LSN2944556]	669	67.6	–	–	29.1	2.308	Strong (25 ≥ Rrelative ≥ 15 as strong binding)	7.0681	4.7601
